Assay results taken from ChEMBL document CHEMBL1121801, “Salicylamide derivatives related to medroxalol with alpha- and beta-adrenergic antagonist and antihypertension activity” (J Med Chem, 1981).

Assays:
Adrenergic receptor beta = Adrenergic receptor beta (Homo sapiens, UniProt P08588+P07550+P13945); assay: In vitro blocking activity against beta adrenergic receptor, isolated from guinea pig atria; type: protein assay
Rattus norvegicus [1] = assay: Antihypertensive activity in spontaneously hypertensive rats(SHR) at 50 mg/kg peroral dose after 4 h, expressed as decrease in systolic blood pressure; type: functional, Artery; conditions: route oral
Cavia porcellus = species: Cavia porcellus; assay: spasmolytic activity in isolated guinea pig ileum preparation;- log KB; (Bacl2); type: functional, organism-based; conditions: read-out: pA2 (converted)
Oryctolagus cuniculus = species: Oryctolagus cuniculus; assay: Ratio of pA2 for beta-adrenergic receptor to that of alpha-adrenergic receptor
Rattus norvegicus [2] = assay: Antihypertensive activity in spontaneously hypertensive rats(SHR) at 50 mg/kg peroral dose after 1 h, expressed as decrease in systolic blood pressure; type: functional, Artery; conditions: route oral
[3] = biological target: T1, Adrenergic receptor alpha-1 (Homo sapiens, UniProt P35348+P25100+P35368); assay: In vitro blocking activity against alpha adrenergic receptor, isolated from rabbit aortic strip; type: protein assay, Oryctolagus cuniculus
T1 sequence (P35348 whole entry): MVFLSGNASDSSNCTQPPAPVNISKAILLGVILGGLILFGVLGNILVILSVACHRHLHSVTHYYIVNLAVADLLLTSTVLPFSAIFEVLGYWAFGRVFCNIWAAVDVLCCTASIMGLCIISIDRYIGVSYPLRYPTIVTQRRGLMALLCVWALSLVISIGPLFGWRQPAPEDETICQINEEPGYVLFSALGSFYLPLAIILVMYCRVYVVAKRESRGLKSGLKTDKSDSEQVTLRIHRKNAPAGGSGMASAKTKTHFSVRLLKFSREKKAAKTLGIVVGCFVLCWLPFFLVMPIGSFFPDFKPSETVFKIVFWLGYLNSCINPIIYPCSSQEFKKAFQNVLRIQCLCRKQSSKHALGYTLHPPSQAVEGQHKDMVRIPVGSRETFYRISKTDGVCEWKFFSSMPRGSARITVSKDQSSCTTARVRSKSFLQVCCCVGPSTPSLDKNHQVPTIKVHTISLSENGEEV
T1 sequence (P25100 whole entry): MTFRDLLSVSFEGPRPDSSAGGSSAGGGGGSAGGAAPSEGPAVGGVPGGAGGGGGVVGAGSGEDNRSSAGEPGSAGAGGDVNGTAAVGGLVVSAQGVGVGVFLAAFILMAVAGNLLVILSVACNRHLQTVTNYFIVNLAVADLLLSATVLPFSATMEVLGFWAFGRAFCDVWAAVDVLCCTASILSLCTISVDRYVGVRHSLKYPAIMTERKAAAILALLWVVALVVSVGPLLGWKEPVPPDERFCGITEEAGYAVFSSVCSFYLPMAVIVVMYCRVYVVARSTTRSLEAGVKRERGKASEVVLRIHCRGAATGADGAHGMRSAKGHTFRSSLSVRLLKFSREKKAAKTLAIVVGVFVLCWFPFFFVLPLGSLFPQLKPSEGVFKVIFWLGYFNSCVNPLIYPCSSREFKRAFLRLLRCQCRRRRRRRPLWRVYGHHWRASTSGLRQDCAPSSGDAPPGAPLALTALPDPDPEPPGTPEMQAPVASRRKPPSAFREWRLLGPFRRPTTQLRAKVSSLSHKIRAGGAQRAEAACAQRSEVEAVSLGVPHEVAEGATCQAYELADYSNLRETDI
T1 sequence (P35368 whole entry): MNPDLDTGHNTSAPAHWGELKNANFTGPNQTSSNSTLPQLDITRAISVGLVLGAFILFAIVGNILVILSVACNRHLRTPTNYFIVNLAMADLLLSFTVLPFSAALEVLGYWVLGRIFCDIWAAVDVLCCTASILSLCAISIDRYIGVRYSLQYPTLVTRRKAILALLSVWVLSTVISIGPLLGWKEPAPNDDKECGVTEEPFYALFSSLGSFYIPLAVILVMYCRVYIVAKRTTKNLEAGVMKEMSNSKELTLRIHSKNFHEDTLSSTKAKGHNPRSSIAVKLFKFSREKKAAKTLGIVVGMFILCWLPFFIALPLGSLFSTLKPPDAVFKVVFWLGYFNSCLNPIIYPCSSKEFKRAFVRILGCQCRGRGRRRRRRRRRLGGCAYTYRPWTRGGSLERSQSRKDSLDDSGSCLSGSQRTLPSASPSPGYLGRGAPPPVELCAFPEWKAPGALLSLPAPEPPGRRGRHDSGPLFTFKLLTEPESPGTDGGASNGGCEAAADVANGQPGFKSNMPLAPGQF

SMILES | pA2 (Adrenergic receptor beta) | Ratio (Oryctolagus cuniculus) | pA2 [3] | BP decrease (Rattus norvegicus [1]) [mmHg] | Kb (Cavia porcellus) [µM] | BP decrease (Rattus norvegicus [2]) [mmHg]
CCNC(=O)c1cc(C(O)CN2CCC(n3c(O)nc4ccccc43)CC2)ccc1O.Cl (configuration not stated) | < 5.38 | < 0.06 | 6.63 | 51 | 6.92 | 22
COC(=O)c1cc(C(O)CN2CCC(n3c(O)nc4ccccc43)CC2)ccc1O.Cl (configuration not stated) | 5.71 | 0.06 | 6.94 | 37 | 1.26 | 52
NC(=O)c1cc(C(O)CN2CCN(c3ccc(Cl)cc3)CC2)ccc1O (configuration not stated) | 6.17 | 0.2 | 6.87 | 56 | 26.3 | 49
Cl.NC(=O)c1cc(C(O)CN2CCN(c3cccc(C(F)(F)F)c3)CC2)ccc1O (configuration not stated) | 6.9 | 3.7 | 6.33 | 18 | 1.82 | 1
COC(=O)c1cc(C(O)CN2CCN(c3ccccc3C)CC2)ccc1O.Cl (configuration not stated) | 6.79 | 0.2 | 7.45 | 6 | 0.871 | 5
CC(CCc1ccccc1)NC(C)C(O)c1ccc(O)cc1.Cl (configuration not stated) [NYLIDRIN HYDROCHLORIDE] | – | – | – | 51 | – | 54
COc1ccc(C(O)CN2CCN(c3ccccc3)CC2)cc1C(N)=O.Cl (configuration not stated) | < 5 | – | 6.54 | 25 | 64.6 | 38
CC(C)NCC(O)COc1cccc2ccccc12.Cl (configuration not stated) [PROPRANOLOL HYDROCHLORIDE] | – | – | – | 46 | – | 28

More lines, main results first:

pA2 (Adrenergic receptor beta) | Ratio (Oryctolagus cuniculus) | pA2 [3] | SMILES | BP decrease (Rattus norvegicus [1]) [mmHg] | Kb (Cavia porcellus) [µM] | BP decrease (Rattus norvegicus [2]) [mmHg]
6.41 | 0.3 | 7 | COC(=O)c1cc(C(O)CN2CCN(c3ccccc3OC)CC2)ccc1OC.Cl (configuration not stated) | 35 | 34.7 | 37
5.07 | 0.9 | 5.13 | Cl.NC(=O)c1cc(C(O)CN2CCN(Cc3ccccc3)CC2)ccc1O (configuration not stated) | 40 | > 74.1 | 35
5.17 | 0.2 | 5.47 | CNC(=O)c1cc(C(O)CN2CCN(c3ccc(OC)cc3)CC2)ccc1O.Cl (configuration not stated) | 14 | 15.1 | 20
6.55 | – | < 5 | COC(=O)c1cc(C(O)CNC(C)(C)CCc2ccc3c(c2)OCO3)ccc1O.Cl (configuration not stated) | 39 | 2.63 | 41
5.41 | 0.04 | 6.8 | COc1ccc(C(O)CN2CCN(c3ccccc3OC)CC2)cc1C(N)=O.Cl (configuration not stated) | 46 | 33.1 | 56
4.19 | – | 7.04 | Cl.NC(=O)c1cc(C(O)CN2CCN(c3ccccc3)CC2)ccc1O (configuration not stated) | 9 | – | 7
5.37 | 0.2 | 6.08 | Cl.NC(=O)c1cc(C(O)CN2CCN(c3ccccn3)CC2)ccc1O (configuration not stated) | 13 | 126 | 16
– | – | 7.95 | CNC(=O)c1cc(C(O)CN2CCN(c3ccccc3OC)CC2)ccc1O.Cl (configuration not stated) | 52 | 9.55 | 44
< 5 | – | < 5 | NC(=O)c1cc(C(O)CN2CCN(C(=O)c3ccco3)CC2)ccc1O (configuration not stated) | 28 | > 100 | 30
< 5 | – | < 5 | COC(=O)c1cc(C(O)CN2CCN(C(=O)c3ccco3)CC2)ccc1O.Cl (configuration not stated) | 15 | 17.4 | 37
